Values quoted from earlier work in publication PMC7436013, “Design, Synthesis, and Biological Investigation of Novel Classes of 3-Carene-Derived Potent Inhibitors of TDP1” (Molecules, 2020).

Columns and labels:
TDP1 = tested on: TDP1; design: method as in PMID 31619021, PMID 30396105, PMID 30142660, PMID 29562592, PMID 27658793; conditions: Figure 1; ref [10]-[13],[16]-[18],[20],[22]; read-out: IC50 of known TDP1 inhibitors; cited from earlier work
Krebs-2 ascites = tested on: Krebs-2 ascites; design: method as in PMID 31878088; conditions: in vivo tumor model, ref [17]; cited from earlier work

SMILES: CC(C)=CCC/C(C)=C/COc1ccc2c(-c3ccc(F)cc3)cc(=O)oc2c1 [compound 5]
- IC50 (TDP1): 0.62 µM
- effect on the antitumor effect of Tpc (Krebs-2 ascites): significant increase in the antitumor effect of Tpc
